# Patent publication US8420626B2, “Arene connected polyamine macrocyclic derivatives, preparation methods and pharmaceutical uses thereof” (Beijing Molecule Science and Technology Co., Ltd., priority 2007, dated 2013)
# Structures can show the parent of a compound that is named as a salt. Where two headings read alike, the source gives them in different places.
# Key:
# Type in all cases: cell-based
# p24 antigens of HIV-1 = test: Anti-HIV activity: inhibition of p24 antigen (ELISA)
# Description: (§1) Per well of polystyrene plate (Immulon IB, Dynex Technology, Chantilly, Va.) was applied with HIV IG (a buffer of 0.085 M sodium carbonate and sodium bicarbonate, pH=9.6), stood at 4° C. over night, washed with PBS-T buffer (0.01 M PBS contains 0.05% Tween-20). The reaction was […] with PBS containing 1% skimmed milk (Bio-Rad Inc., Hercules, Calif.). A virus dissolved product was added to the wells, incubated at 37° C. for 1 hour, and washed. To the washed wells were added anti-P24 mAb (183-12H-5C), biotin labeled antimouse IgG1 (Santa Cruz Biotech., Santa Cruz, Calif.), SA-HRP and TMB successively. The reaction was terminated with 1N H2SO4. The absorption was detected at 450 nm by means of ELISA detector (Ultra 384, Tecan). Recombination protein p24 (US Biological, Swampscott, Mass.) was considered when the response curve of standard dosage was established. The inhibition activity IC50 (half inhibition concentration) values of p24 protein and (cell pathological effect) CPE were calculated by Calcusyn software provided by Sloan-Kettering Cancer Center (New York).
# (§2) The inhibition activity (IC50) of pathological effect (CPE) and cytotoxicity (CC50) of p24 antigens and cells of HIV-1 of the compounds of part of examples were shown as follows: […]
# HIV-1 = test: Anti-HIV activity: inhibition of cell pathological effect (CPE); conditions: Human immunodeficiency virus 1; inhibition of cell pathological effect of HIV-1
# Description: as §1, §2
# Cytotoxicity (XTT assay) = conditions: half toxic concentration, incubation 4 days at 37° C.
# Description: To 100 μl solution per compound on 96 wells cultivation plate at a certain concentration was added the same volume of cells (5×10^5/ml). Incubation was performed at 37° C. for 4 days. To the resultant were added 50 μl XTT solution (1 mg/ml) and 0.02 nM PMS. After the incubation was performed for 4 hours, the absorption was detected at 450 nm by means of ELISA detector. The CC50 (half toxic concentration) value was calculated by Calcusyn software provided by Sloan-Kettering Cancer Center (New York).
# as §2
# [1] = Human immunodeficiency virus 1, inhibition of HIV-1 p24 antigen, ELISA at 450 nm, read-out: IC50 (μM) p24
SMILES,IC50 (p24 antigens of HIV-1; [1]),IC50 (HIV-1),CC50 at 4 days (Cytotoxicity (XTT assay)),"IC50 (p24 antigens of HIV-1; Human immunodeficiency virus 1, read-out: IC50 (μM) p24)"
"c1ccc(C(c2cccc(CN3CCCNCCNCCCNCC3)c2)c2cccc(CN3CCCNCCNCCCNCC3)c2)cc1 [Example 1, 3,3′-bis[(1,4,8,11-tetraazacyclotetradecan-1-yl)-methyl]-1,1′,1″-triphenylmethane octahydrobromide dihydrate]",0.13 ± 0.02 µM,0.41 ± 0.11 µM,322000 ± 7130 nM,
"Cc1ccc(C(c2cccc(CN3CCCNCCNCCCNCC3)c2)c2cccc(CN3CCCNCCNCCCNCC3)c2)cc1 [Example 2, 3,3′-bis[(1,4,8,11-tetraazacyclotetradecan-1-yl)-methyl]-4″-methyl-1,1′,1″-triphenylmethane octahydrobromide dihydrate]",0.17 ± 0.08 µM,0.48 ± 0.31 µM,285000 ± 18800 nM,
"Brc1ccc(C(c2cccc(CN3CCCNCCNCCCNCC3)c2)c2cccc(CN3CCCNCCNCCCNCC3)c2)cc1 [Example 3, 3,3′-bis[(1,4,8,11-tetraazacyclotetradecan-1-yl)-methyl]-4″-bromo-1,1′,1″-triphenylmethane octahydrobromide dihydrate]",0.13 ± 0.01 µM,0.08 ± 0.04 µM,161000 ± 4230 nM,
"Fc1ccc(C(c2cccc(CN3CCCNCCNCCCNCC3)c2)c2cccc(CN3CCCNCCNCCCNCC3)c2)cc1 [Example 4, 3,3′-bis[(1,4,8,11-tetraazacyclotetradecan-1-yl)-methyl]-4″-fluoro-1,1′,1″-triphenylmethane octahydrobromide dihydrate]",0.32 ± 0.02 µM,0.42 ± 0.06 µM,367000 ± 54000 nM,
"Clc1cccc(C(c2cccc(CN3CCCNCCNCCCNCC3)c2)c2cccc(CN3CCCNCCNCCCNCC3)c2)c1 [Example 5, 3,3′-bis[(1,4,8,11-tetraazacyclotetradecan-1-yl)-methyl]-3″-chloro-1,1′,1″-triphenylmethane octahydrobromide dihydrate]",0.35 ± 0.04 µM,0.23 ± 0.01 µM,162000 ± 2690 nM,
"c1ccc(C(c2cccc(CN3CCCNCCNCCCNCC3)c2)c2cccc(CN3CCCNCCNCCCNCC3)c2)nc1 [Example 6, 2-{[3,3′-bis[(1,4,8,11-tetraazacyclotetradecan-1-yl)-methyl]-1,1′yl]-diphenyl}methylenepyridyl octahydrobromide dihydrate]",0.16 ± 0.04 µM,0.55 ± 0.16 µM,377000 ± 34400 nM,
"c1ccc(C(c2ccc(CN3CCCNCCNCCCNCC3)cc2)c2ccc(CN3CCCNCCNCCCNCC3)cc2)cc1 [Example 7, 4,4′-bis[(1,4,8,11-tetraazacyclotetradecan-1-yl)-methyl]-1,1′,1″-triphenylmethane octahydrobromide dihydrate]",0.98 ± 0.12 µM,2.42 ± 0.4 µM,101000 ± 1050 nM,
"Cc1ccc(C(c2ccc(CN3CCCNCCNCCCNCC3)cc2)c2ccc(CN3CCCNCCNCCCNCC3)cc2)cc1 [Example 8, 4,4′-bis[(1,4,8,11-tetraazacyclotetradecan-1-yl)-methyl]-4″-methyl-1,1′,1″-triphenylmethane octahydrobromide dihydrate]",0.97 ± 0.14 µM,2.05 ± 0.58 µM,130000 ± 12400 nM,
"Brc1ccc(C(c2ccc(CN3CCCNCCNCCCNCC3)cc2)c2ccc(CN3CCCNCCNCCCNCC3)cc2)cc1 [Example 9, 4,4′-bis[(1,4,8,11-tetraazacyclotetradecan-1-yl)-methyl]-4″-bromo-1,1′,1″-triphenylmethane octahydrobromide dihydrate]",0.43 ± 0.07 µM,1.75 ± 0.37 µM,65800 ± 7960 nM,
"Fc1ccc(C(c2ccc(CN3CCCNCCNCCCNCC3)cc2)c2ccc(CN3CCCNCCNCCCNCC3)cc2)cc1 [Example 10, 4,4′-bis[(1,4,8,11-tetraazacyclotetradecan-1-yl)-methyl]-4″-fluoro-1,1′,1″-triphenylmethane octahydrobromide dihydrate]",0.43 ± 0.11 µM,1.22 ± 0.2 µM,91300 ± 8750 nM,
"Clc1cccc(C(c2ccc(CN3CCCNCCNCCCNCC3)cc2)c2ccc(CN3CCCNCCNCCCNCC3)cc2)c1 [Example 11, 4,4′-bis[(1,4,8,11-tetraazacyclotetradecan-1-yl)-methyl]-3″-chloro-1,1′,1″-triphenylmethane octahydrobromide dihydrate]",0.65 ± 0.2 µM,1.48 ± 0.52 µM,67800 ± 13300 nM,
"c1ccc(C(c2cccc(CN3CCCNCc4cccc(c4)CNCCC3)c2)c2cccc(CN3CCCNCc4cccc(c4)CNCCC3)c2)cc1 [Example 13, 3,3′-bis{[3,7,11-triaza-dicyclo[11.3.1]heptadecan-1(16),13(17),14-trien-7-yl]-methyl}-1,1′,1″-triphenylmethane hexahydrobromide dihydrate]",,1.56 ± 0.48 µM,12400 ± 3690 nM,0.64 ± 0.08 µM
"c1ccc(C(c2cccc(CN3CCCNCc4cccc(n4)CNCCC3)c2)c2cccc(CN3CCCNCc4cccc(n4)CNCCC3)c2)cc1 [Example 19, 3,3′-bis{[3,7,11,17-tetraaza-dicyclo[11.3.1]heptadecan-1(16),13(17),14-trien-7-yl]-methyl}-1,1′,1″-triphenyl methane hexahydrobromide dihydrate]",0.44 ± 0.04 µM,0.79 ± 0.02 µM,14500 ± 1290 nM,
"Clc1cccc(C(c2cccc(CN3CCCNCc4cccc(n4)CNCCC3)c2)c2cccc(CN3CCCNCc4cccc(n4)CNCCC3)c2)c1 [Example 23, 3,3′-bis{[3,7,11,17-tetraaza-dicyclo[11.3.1]heptadecan-1(16),13(17),14-trien-7-yl]-methyl}-3″-chloro-1,1′,1″-triphenylmethane hexahydrobromide dihydrate]",0.32 ± 0.05 µM,1.18 ± 0.48 µM,15300 ± 560 nM,
"c1ccc(C(c2ccc(CN3CCCNCc4cccc(c4)CNCCC3)cc2)c2ccc(CN3CCCNCc4cccc(c4)CNCCC3)cc2)cc1 [Example 25, 4,4′-bis{[3,7,11-triaza-dicyclo[11.3.1]heptadecan-1(16),13(17),14-trien-7-yl]-methyl}-1,1′1″-triphenylmethane hexahydrobromide dihydrate]",0.55 ± 0.09 µM,1.87 ± 0.28 µM,32500 ± 3270 nM,
"Cc1ccc(C(c2ccc(CN3CCCNCc4cccc(n4)CNCCC3)cc2)c2ccc(CN3CCCNCc4cccc(n4)CNCCC3)cc2)cc1 [Example 31, 4,4′-bis{[3,7,11,17-tetraaza-dicyclo[11.3.1]heptadecan-1(16),13(17),14-trien-7-yl]-methyl}-4″-methyl-1,1′,1″-triphenylmethane hexahydrobromide dihydrate]",0.78 ± 0.18 µM,1.07 ± 0.79 µM,39290 ± 80 nM,
"Brc1ccc(C(c2ccc(CN3CCCNCc4cccc(n4)CNCCC3)cc2)c2ccc(CN3CCCNCc4cccc(n4)CNCCC3)cc2)cc1 [Example 32, 4,4′-bis{[3,7,11,17-tetraaza-dicyclo[11.3.1]heptadecan-1(16),13(17),14-trien-7-yl]-methyl}-4″-bromo-1,1′,1″-triphenylmethane hexahydrobromide dihydrate]",0.15 ± 0.02 µM,0.8 ± 0.23 µM,12900 ± 310 nM,
